Our source for the IC50 values is patent US20260078120A1, “SUBSTITUTED PYRIDOPYRIMIDINONES” (MIRATI THERAPEUTICS, INC., priority 2022, published 2026).

Assay [1] relates to T47D (PI3Kα H1047R mutant) cells. Nature of the assay: CellTiter-Glo 2.0 luminescent cell viability assay, 72 hours, T47D cells. Type of assay: cell-based. The note with it: Homo sapiens, T47D, 72 h, T47D (PI3Kα H1047R mutant) cells, CellTiter-Glo, approximately 72 hours; read-out: T47D (H1047R mutant) Viability IC50. The gist of the method: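 Cells seeded at 1000 per well overnight were dosed with a 10-concentration, 1:4 series starting at 10 µM and incubated ~72 h at 37° C. Viability was read by CellTiter-Glo 2.0 luminescence after 30 min at room temperature. IC50 came from four-parameter fits of percent vehicle control.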
In general terms: ATP-based viability assays read luminescence as a measure of living cells.

Assay [2] relates to SKBR3 (PI3Kα wild type) cells. Nature of the assay: CellTiter-Glo 2.0 luminescent cell viability assay, 72 hours, SKBR3 cells. Type of assay: cell-based. Particulars: Homo sapiens, SK-BR-3, 72 h, SKBR3 (PI3Kα wild type) cells, CellTiter-Glo, approximately 72 hours; read-out: SKBR3 (WT) Viability IC50. In short, it runs like this: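 Viability measured via CTG luminescence following roughly 72 hours of compound exposure at 37° C. Dosing used a 10 um starting concentration diluted 1:4 over 10 points; percent-of-vehicle data fitted with a variable-slope four-parameter model for IC50.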

Structures are written as SMILES.

Broadly, the IC50 is the concentration that inhibits the measured activity by half. As to `Cc1cc([C@@H](C)Nc2ccc(Cl)cc2C(=O)O)c2nc(N3CCC(F)(F)CC3)c(C)c(=O)n2c1` [Example 11-91, (R)-5-chloro-2-((1-(2-(4,4-difluoropiperidin-1-yl)-3,7-dimethyl-4-oxo-4H-pyrido[1,2-a]pyrimidin-9-yl)ethyl)amino)benzoic acid], the IC50 was 358 nM in assay [1] and > 10000 nM in assay [2].
For `Cc1cc([C@@H](C)Nc2ccccc2C(=O)O)c2nc(N3CCC(F)(F)C[C@@H]3C)c(C)c(=O)n2c1` [Example 11-92, 2-(((R)-1-(2-((S)-4,4-difluoro-2-methylpiperidin-1-yl)-3,7-dimethyl-4-oxo-4H-pyrido[1,2-a]pyrimidin-9-yl)ethyl)amino)benzoic acid], in that order: 213 nM and > 10000 nM.
For `Cc1cc([C@@H](C)Nc2ccccc2C(=O)O)c2nc(N3CCC(F)(F)C[C@H]3C)c(C)c(=O)n2c1` [Example 11-93, 2-(((R)-1-(2-((R)-4,4-difluoro-2-methylpiperidin-1-yl)-3,7-dimethyl-4-oxo-4H-pyrido[1,2-a]pyrimidin-9-yl)ethyl)amino)benzoic acid], in that order: 268 nM and > 10000 nM.
The like results for `Cc1cc([C@@H](C)Nc2ccccc2C(=O)O)c2nc(N3CC[C@H]3CF)c(C)c(=O)n2c1` [Example 11-94, 2-(((R)-1-(2-((S)-2-(fluoromethyl)azetidin-1-yl)-3,7-dimethyl-4-oxo-4H-pyrido[1,2-a]pyrimidin-9-yl)ethyl)amino)benzoic acid] were, in that order, 185 nM and > 10000 nM.
On to `Cc1cc([C@@H](C)Nc2ccccc2C(=O)O)c2nc(N3CC[C@@H]3CF)c(C)c(=O)n2c1` [Example 11-95, 2-(((R)-1-(2-((R)-2-(fluoromethyl)azetidin-1-yl)-3,7-dimethyl-4-oxo-4H-pyrido[1,2-a]pyrimidin-9-yl)ethyl)amino)benzoic acid], for which the values for the IC50 in assay [1] and in assay [2] were 198 nM and > 10000 nM, respectively.
Consider `Cc1cc([C@@H](C)Nc2ccccc2C(=O)O)c2nc(N3CC(F)(F)[C@H]3C)c(C)c(=O)n2c1` [Example 11-96, 2-(((R)-1-(2-((R)-3,3-difluoro-2-methylazetidin-1-yl)-3,7-dimethyl-4-oxo-4H-pyrido[1,2-a]pyrimidin-9-yl)ethyl)amino)benzoic acid], for which the results for the IC50 in assay [1] and in assay [2] were 159 nM and > 10000 nM, respectively.
Turning to `Cc1cc([C@@H](C)Nc2ccccc2C(=O)O)c2nc(N3CC[C@H]3C(F)(F)F)c(C)c(=O)n2c1` [Example 11-97, 2-(((R)-1-(3,7-dimethyl-4-oxo-2-((S)-2-(trifluoromethyl)azetidin-1-yl)-4H-pyrido[1,2-a]pyrimidin-9-yl)ethyl)amino)benzoic acid], the results for the IC50 in assay [1] and in assay [2] were 309 nM and > 10000 nM, respectively.
The like results for `Cc1cc([C@@H](C)Nc2ccccc2C(=O)O)c2nc(N3CC[C@@H]3C(F)(F)F)c(C)c(=O)n2c1` [Example 11-98, 2-(((R)-1-(3,7-dimethyl-4-oxo-2-((R)-2-(trifluoromethyl)azetidin-1-yl)-4H-pyrido[1,2-a]pyrimidin-9-yl)ethyl)amino)benzoic acid] were, in that order, 473 nM and > 10000 nM.
The like results for `Cc1cc([C@@H](C)Nc2ccccc2C(=O)O)c2nc(NC3CCC3)c(C)c(=O)n2c1` [Example 11-99, (R)-2-((1-(2-(cyclobutylamino)-3,7-dimethyl-4-oxo-4H-pyrido[1,2-a]pyrimidin-9-yl)ethyl)amino)benzoic acid] were, in that order, 652 nM and > 10000 nM.
For the molecule `Cc1cc([C@@H](C)Nc2ccccc2C(=O)O)c2nc(N3CC[C@H]3C)c(C)c(=O)n2c1` [Example 11-100, 2-(((R)-1-(3,7-dimethyl-2-((R)-2-methylazetidin-1-yl)-4-oxo-4H-pyrido[1,2-a]pyrimidin-9-yl)ethyl)amino)benzoic acid], the IC50 in assay [1] is 225 nM; in assay [2], > 10000 nM.
The like results for `Cc1cc([C@@H](C)Nc2ccccc2C(=O)O)c2nc(N3CC[C@@H]3C)c(C)c(=O)n2c1` [Example 11-101, 2-(((R)-1-(3,7-dimethyl-2-((S)-2-methylazetidin-1-yl)-4-oxo-4H-pyrido[1,2-a]pyrimidin-9-yl)ethyl)amino)benzoic acid] were, in that order, 180 nM and > 10000 nM.
The like results for `Cc1cc([C@@H](C)Nc2ccccc2C(=O)O)c2nc(N3CC4(C3)CC4(F)F)c(C#N)c(=O)n2c1` [Example 11-102, (R)-2-((1-(3-cyano-2-(1,1-difluoro-5-azaspiro[2.3]hexan-5-yl)-7-methyl-4-oxo-4H-pyrido[1,2-a]pyrimidin-9-yl)ethyl)amino)benzoic acid] were, in that order, 130 nM and > 10000 nM.
For `Cc1cc([C@@H](C)Nc2ccccc2C(=O)O)c2nc(N3CC4(C3)CC4(F)F)c(C)c(=O)n2c1` [Example 11-103, (R)-2-((1-(2-(1,1-difluoro-5-azaspiro[2.3]hexan-5-yl)-3,7-dimethyl-4-oxo-4H-pyrido[1,2-a]pyrimidin-9-yl)ethyl)amino)benzoic acid], in that order: 475 nM and > 10000 nM.
Take `Cc1cc([C@@H](C)Nc2ccccc2C(=O)O)c2nc(N3CC(C(F)F)C3)c(C#N)c(=O)n2c1` [Example 11-104, (R)-2-((1-(3-cyano-2-(3-(difluoromethyl)azetidin-1-yl)-7-methyl-4-oxo-4H-pyrido[1,2-a]pyrimidin-9-yl)ethyl)amino)benzoic acid]: the IC50 was 306 nM in assay [1] and > 10000 nM in assay [2].
As for `Cc1cc([C@@H](C)Nc2ccccc2C(=O)O)c2nc(N3CC(C(F)F)C3)c(C)c(=O)n2c1` [Example 11-105, (R)-2-((1-(2-(3-(difluoromethyl)azetidin-1-yl)-3,7-dimethyl-4-oxo-4H-pyrido[1,2-a]pyrimidin-9-yl)ethyl)amino)benzoic acid], the IC50 was 255 nM in assay [1] and > 10000 nM in assay [2].
The like results for `Cc1cc([C@@H](C)Nc2ccccc2C(=O)O)c2nc(N3CC(C(F)(F)F)C3)c(C#N)c(=O)n2c1` [Example 11-106, (R)-2-((1-(3-cyano-7-methyl-4-oxo-2-(3-(trifluoromethyl)azetidin-1-yl)-4H-pyrido[1,2-a]pyrimidin-9-yl)ethyl)amino)benzoic acid] were, in that order, 117 nM and > 10000 nM.
The like results for `Cc1cc([C@@H](C)Nc2ccccc2C(=O)O)c2nc(N3CC(C(F)(F)F)C3)c(C)c(=O)n2c1` [Example 11-107, (R)-2-((1-(3,7-dimethyl-4-oxo-2-(3-(trifluoromethyl)azetidin-1-yl)-4H-pyrido[1,2-a]pyrimidin-9-yl)ethyl)amino)benzoic acid] were, in that order, 137 nM and > 10000 nM.
The like results for `C=C(C#N)CNc1nc2c([C@@H](C)Nc3ccccc3C(=O)O)cc(C)cn2c(=O)c1C#N` [Example 11-108, (R)-2-((1-(3-cyano-2-((2-cyanoallyl)amino)-7-methyl-4-oxo-4H-pyrido[1,2-a]pyrimidin-9-yl)ethyl)amino)benzoic acid] were, in that order, 3690 nM and > 10000 nM.
Take `Cc1cc([C@@H](C)Nc2ccccc2C(=O)O)c2nc(N3CC(C#N)C3)c(C#N)c(=O)n2c1` [Example 11-109, (R)-2-((1-(3-cyano-2-(3-cyanoazetidin-1-yl)-7-methyl-4-oxo-4H-pyrido[1,2-a]pyrimidin-9-yl)ethyl)amino)benzoic acid]: the results for the IC50 in assay [1] and in assay [2] were 1330 nM and > 10000 nM, respectively.
For `C=C(C#N)CNc1nc2c([C@@H](C)Nc3ccccc3C(=O)O)cc(C)cn2c(=O)c1C` [Example 11-110, (R)-2-((1-(2-((2-cyanoallyl)amino)-3,7-dimethyl-4-oxo-4H-pyrido[1,2-a]pyrimidin-9-yl)ethyl)amino)benzoic acid], in that order: 4880 nM and > 10000 nM.
The like results for `COC1CN(c2nc3c([C@@H](C)Nc4ccccc4C(=O)O)cc(C)cn3c(=O)c2C#N)C1` [Example 11-111, (R)-2-((1-(3-cyano-2-(3-methoxyazetidin-1-yl)-7-methyl-4-oxo-4H-pyrido[1,2-a]pyrimidin-9-yl)ethyl)amino)benzoic acid] were, in that order, 285 nM and > 10000 nM.
For the molecule `COC1CN(c2nc3c([C@@H](C)Nc4ccccc4C(=O)O)cc(C)cn3c(=O)c2C)C1` [Example 11-112, (R)-2-((1-(2-(3-methoxyazetidin-1-yl)-3,7-dimethyl-4-oxo-4H-pyrido[1,2-a]pyrimidin-9-yl)ethyl)amino)benzoic acid], the results for the IC50 in assay [1] and in assay [2] were 184 nM and > 10000 nM, respectively.
With `Cc1cc([C@@H](C)Nc2ccccc2C(=O)O)c2nc(N3CC(F)C3)c(C#N)c(=O)n2c1` [Example 11-113, (R)-2-((1-(3-cyano-2-(3-fluoroazetidin-1-yl)-7-methyl-4-oxo-4H-pyrido[1,2-a]pyrimidin-9-yl)ethyl)amino)benzoic acid], the 50% inhibitory concentration (IC50) in assay [1] was 249 nM; in assay [2], > 10000 nM.
The like results for `Cc1cc([C@@H](C)Nc2ccccc2C(=O)O)c2nc(N3CC(F)C3)c(C)c(=O)n2c1` [Example 11-114, (R)-2-((1-(2-(3-fluoroazetidin-1-yl)-3,7-dimethyl-4-oxo-4H-pyrido[1,2-a]pyrimidin-9-yl)ethyl)amino)benzoic acid] were, in that order, 257 nM and > 10000 nM.
The like results for `Cc1cc([C@@H](C)Nc2ccccc2C(=O)O)c2nc(N3CC(F)(F)C3)c(C)c(=O)n2c1` [Example 11-115, (R)-2-((1-(2-(3,3-difluoroazetidin-1-yl)-3,7-dimethyl-4-oxo-4H-pyrido[1,2-a]pyrimidin-9-yl)ethyl)amino)benzoic acid] were, in that order, 379 nM and > 10000 nM.
